Measured values published in patent US10533010B2, “Substituted indole Mcl-1 inhibitors” (Vanderbilt University, priority 2014, dated 2020).

Molecular target: recombinant Mcl-1 (residues 172-327) (Homo sapiens (Human), UniProt Q07820)
Assay: Fluorescence polarization anisotropy competition assay (FITC-Bak or FITC-Bim BH3 peptide) with Mcl-1
Assay type: binding
Details: not given

Sequence of recombinant Mcl-1 (residues 172-327) (Q07820 172-327): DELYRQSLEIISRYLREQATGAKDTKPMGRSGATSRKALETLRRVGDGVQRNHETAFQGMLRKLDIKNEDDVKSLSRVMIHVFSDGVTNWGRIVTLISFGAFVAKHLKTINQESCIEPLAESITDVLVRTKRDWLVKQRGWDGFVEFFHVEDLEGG

| SMILES | Ki |
| --- | --- |
| Cc1cc(OCCCc2c3n(c4c(-c5c(C)nn(C)c5C)cc(Cl)cc24)CCCN(c2cc(C(=O)O)cc4c2ccn4C)C3=O)cc(C)c1Cl [I-245, 4-(9-chloro-11-(3-(4-chloro-3,5-dimethylphenoxy)propyl)-1-oxo-7-(1,3,5-trimethyl-1H-pyrazol-4-yl)-4,5-dihydro-1H-[1,4]diazepino[1,2-a]indol-2(3H)-yl)-1-methyl-1H-indole-6-carboxylic acid] | 101 to 299 nM |

Same assay, conditions: Table 2; Ki bins given in nM; FITC-Bak or FITC-Bim peptide competition; Ki converted from IC50; read-out: Ki for Inhibition of Mcl-1

| SMILES | Ki |
| --- | --- |
| Cc1cc(OCCCc2c3n(c4c(-c5c(C)nn(C)c5C)c(Cl)ccc24)[C@@H](C)CN(Cc2ccc(C(=O)O)o2)C3=O)cc(C)c1Cl [I-148, (S)-5-((7-chloro-10-(3-(4-chloro-3,5-dimethylphenoxy)propyl)-4-methyl-1-oxo-6-(1,3,5-trimethyl-1H-pyrazol-4-yl)-3,4-dihydropyrazino[1,2-a]indol-2(1H)-yl)methyl)furan-2-carboxylic acid] | < 50 nM |
| Cc1cc(OCCCc2c(C(=O)NCCC(=O)NS(=O)(=O)C3CC3)[nH]c3ccccc23)cc(C)c1Cl [I-13, 3-(3-(4-chloro-3,5-dimethylphenoxy)propyl)-N-(3-(cyclopropanesulfonamido)-3-oxopropyl)-1H-indole-2-carboxamide] | 301 to 500 nM |
| Cc1cc(OCCCc2c(C(=O)Nc3ccc(C(=O)O)nc3)[nH]c3c(-c4c(C)nn(C)c4C)c(Cl)ccc23)cc(C)c1Cl [I-185, 5-(6-chloro-3-(3-(4-chloro-3,5-dimethylphenoxy)propyl)-7-(1,3,5-trimethyl-1H-pyrazol-4-yl)-1H-indole-2-carboxamido)picolinic acid] | < 50 nM |
| Cc1cc(OCCCc2c(C(=O)NCC(=O)NS(=O)(=O)c3cccnc3)[nH]c3ccccc23)cc(C)c1Cl [I-6, 3-(3-(4-chloro-3,5-dimethylphenoxy)propyl)-N-(2-oxo-2-(pyridine-3-sulfonamido)ethyl)-1H-indole-2-carboxamide] | 301 to 500 nM |
| Cc1cc(OCCCc2c(C(=O)N[C@H]3CCC[C@H]3C(=O)O)[nH]c3c(-c4c(C)nn(C)c4C)cccc23)cc(C)c1Cl [I-314, (1R,2S)-2-(3-(3-(4-chloro-3,5-dimethylphenoxy)propyl)-7-(1,3,5-trimethyl-1H-pyrazol-4-yl)-1H-indole-2-carboxamido)cyclopentane-1-carboxylic acid] | 51 to 100 nM |
| Cc1cc(OCCCc2c(C(=O)NCc3cc(Br)cc(C(=O)O)c3)[nH]c3c(-c4c(C)nn(C)c4C)c(Cl)ccc23)cc(C)c1Cl [I-370, 3-bromo-5-((6-chloro-3-(3-(4-chloro-3,5-dimethylphenoxy)propyl)-7-(1,3,5-trimethyl-1H-pyrazol-4-yl)-1H-indole-2-carboxamido)methyl)benzoic acid] | < 50 nM |
| Cc1cc(OCCCc2c(C(=O)NCc3cc(C(=O)O)cc(N4CCN(CCC(C)C)CC4)n3)[nH]c3c(-c4c(C)nn(C)c4C)c(Cl)ccc23)cc(C)c1Cl [I-285, 2-((6-chloro-3-(3-(4-chloro-3,5-dimethylphenoxy)propyl)-7-(1,3,5-trimethyl-1H-pyrazol-4-yl)-1H-indole-2-carboxamido)methyl)-6-(4-isopentylpiperazin-1-yl)isonicotinic acid] | < 50 nM |
| Cc1cc(OCCCc2c(C(=O)N(C)Cc3ccc(C(=O)O)cc3)n(CCN3CCOCC3)c3c(-c4c(C)nn(C)c4C)c(Cl)ccc23)cc(C)c1Cl [I-374, 4-((6-chloro-3-(3-(4-chloro-3,5-dimethylphenoxy)propyl)-N-methyl-1-(2-morpholinoethyl)-7-(1,3,5-trimethyl-1H-pyrazol-4-yl)-1H-indole-2-carboxamido)methyl)benzoic acid] | < 50 nM |
| Cc1cc(CN2CCCn3c(c(CCCOc4cc(C)c(Cl)c(C)c4)c4ccc(Cl)c(-c5c(C)nn(C)c5C)c43)C2=O)cc(C(=O)O)c1 [I-297, 3-((8-chloro-11-(3-(4-chloro-3,5-dimethylphenoxy)propyl)-1-oxo-7-(1,3,5-trimethyl-1H-pyrazol-4-yl)-4,5-dihydro-1H-[1,4]diazepino[1,2-a]indol-2(3H)-yl)methyl)-5-methylbenzoic acid] | 51 to 100 nM |
| Cc1cc(OCCCc2c(C(=O)NCc3ccc(C(=O)O)cc3)n(CCN3CCOCC3)c3c(-c4c(C)nn(C)c4C)c(Cl)ccc23)cc(C)c1Cl [I-373, 4-((6-chloro-3-(3-(4-chloro-3,5-dimethylphenoxy)propyl)-1-(2-morpholinoethyl)-7-(1,3,5-trimethyl-1H-pyrazol-4-yl)-1H-indole-2-carboxamido)methyl)benzoic acid] | < 50 nM |
| Cc1cc(OCCCc2c(C(=O)Nc3cccc(C#N)c3)[nH]c3c(-c4c(C)nn(C)c4C)c(Cl)ccc23)cc(C)c1Cl [I-352, 6-chloro-3-(3-(4-chloro-3,5-dimethylphenoxy)propyl)-N-(3-cyanophenyl)-7-(1,3,5-trimethyl-1H-pyrazol-4-yl)-1H-indole-2-carboxamide] | 51 to 100 nM |
| Cc1cc(OCCCc2c(C(=O)NCc3ccc(C(=O)N[C@@H](Cc4ccccc4)C(=O)O)o3)[nH]c3c(-c4c(C)nn(C)c4C)cccc23)cc(C)c1Cl [I-271, (5-((3-(3-(4-chloro-3,5-dimethylphenoxy)propyl)-7-(1,3,5-trimethyl-1H-pyrazol-4-yl)-1H-indole-2-carboxamido)methyl)furan-2-carbonyl)-L-phenylalanine] | < 50 nM |

Further lines, results first:

| Ki | SMILES |
| --- | --- |
| < 50 nM | Cc1cc(OCCCc2c3n(c4c(-c5c(C)nn(C)c5C)c(Cl)ccc24)CCCN(CC(=O)N[C@@H](Cc2ccccc2)C(=O)O)C3=O)cc(C)c1Cl [I-305, (2-(8-chloro-11-(3-(4-chloro-3,5-dimethylphenoxy)propyl)-1-oxo-7-(1,3,5-trimethyl-1H-pyrazol-4-yl)-4,5-dihydro-1H-[1,4]diazepino[1,2-a]indol-2(3H)-yl)acetyl)-L-phenylalanine] |
| < 50 nM | Cc1cc(OCCCc2c3n(c4c(-c5c(C)nn(C)c5C)c(Cl)ccc24)[C@H](C)CN(c2cccc(C(=O)O)c2)C3=O)cc(C)c1Cl [I-171, (R)-3-(7-chloro-10-(3-(4-chloro-3,5-dimethylphenoxy)propyl)-4-methyl-1-oxo-6-(1,3,5-trimethyl-1H-pyrazol-4-yl)-3,4-dihydropyrazino[1,2-a]indol-2(1H)-yl)benzoic acid] |
| < 50 nM | Cc1cc(OCCCc2c3n(c4c(-c5c(C)nn(C)c5C)c(Cl)ccc24)CCCN(c2cc(C(=O)O)cc(Cl)n2)C3=O)cc(C)c1Cl [I-230, 2-chloro-6-(8-chloro-11-(3-(4-chloro-3,5-dimethylphenoxy)propyl)-1-oxo-7-(1,3,5-trimethyl-1H-pyrazol-4-yl)-4,5-dihydro-1H-[1,4]diazepino[1,2-a]indol-2(3H)-yl)isonicotinic acid] |
| < 50 nM | Cc1cc(OCCCc2c3n(c4c(-c5c(C)nn(C)c5C)c(Cl)ccc24)C[C@@H](C)N(Cc2ccc(C(=O)O)o2)C3=O)cc(C)c1Cl [I-123, (R)-5-((7-chloro-10-(3-(4-chloro-3,5-dimethylphenoxy)propyl)-3-methyl-1-oxo-6-(1,3,5-trimethyl-1H-pyrazol-4-yl)-3,4-dihydropyrazino[1,2-a]indol-2(1H)-yl)methyl)furan-2-carboxylic acid] |
| < 50 nM | Cc1cc(OCCCc2c3n(c4c(-c5c(C)nn(C)c5C)c(Cl)ccc24)CCCN(c2cc(C(=O)O)cc(-c4cccnc4C)c2)C3=O)cc(C)c1Cl [I-232, 3-(8-chloro-11-(3-(4-chloro-3,5-dimethylphenoxy)propyl)-1-oxo-7-(1,3,5-trimethyl-1H-pyrazol-4-yl)-4,5-dihydro-1H-[1,4]diazepino[1,2-a]indol-2(3H)-yl)-5-(2-methylpyridin-3-yl)benzoic acid] |
| < 50 nM | Cc1cc(OCCCc2c3n(c4c(-c5c(C)nn(C)c5C)c(Cl)ccc24)CCCN(c2cc(C(=O)O)cc4c2c(Cl)cn4C)C3=O)cc(C)c1Cl [I-255, 3-chloro-4-(8-chloro-11-(3-(4-chloro-3,5-dimethylphenoxy)propyl)-1-oxo-7-(1,3,5-trimethyl-1H-pyrazol-4-yl)-4,5-dihydro-1H-[1,4]diazepino[1,2-a]indol-2(3H)-yl)-1-methyl-1H-indole-6-carboxylic acid] |
| < 50 nM | Cc1cc(OCCCc2c(C(=O)N3CCN(c4ccc(C(=O)O)cc4)CC3)n(C)c3c(-c4c(C)nn(C)c4C)c(Cl)ccc23)cc(C)c1Cl [I-339, 4-(4-(6-chloro-3-(3-(4-chloro-3,5-dimethylphenoxy)propyl)-1-methyl-7-(1,3,5-trimethyl-1H-pyrazol-4-yl)-1H-indole-2-carbonyl)piperazin-1-yl)benzoic acid] |
| < 50 nM | Cc1cc(OCCCc2c3n(c4c(-c5c(C)nn(C)c5C)cccc24)CCCN(Cc2cc(C(=O)O)cc([N+](=O)[O-])c2)C3=O)cc(C)c1Cl [I-86, 3-((11-(3-(4-chloro-3,5-dimethylphenoxy)propyl)-1-oxo-7-(1,3,5-trimethyl-1H-pyrazol-4-yl)-4,5-dihydro-1H-[1,4]diazepino[1,2-a]indol-2(3H)-yl)methyl)-5-nitrobenzoic acid] |
| < 50 nM | Cc1cc(OCCCc2c3n(c4c(-c5c(C)nn(C)c5C)c(Cl)ccc24)[C@@H](C)CN(c2cc(C(=O)O)cc4c2ccn4C)C3=O)cc(C)c1Cl [I-167, (S)-4-(7-chloro-10-(3-(4-chloro-3,5-dimethylphenoxy)propyl)-4-methyl-1-oxo-6-(1,3,5-trimethyl-1H-pyrazol-4-yl)-3,4-dihydropyrazino[1,2-a]indol-2(1H)-yl)-1-methyl-1H-indole-6-carboxylic acid] |

Same assay, conditions: Table 2; Ki bins given in μM; FITC-Bak or FITC-Bim peptide competition; Ki converted from IC50; read-out: Ki for Inhibition of Mcl-1

| SMILES | Ki |
| --- | --- |
| Cc1cc(CNC(=O)c2[nH]c3c(-c4c(C)nn(C)c4C)cccc3c2CCCOc2cc(C)c(Cl)c(C)c2)cc(OC(F)(F)F)c1 [I-265, 3-(3-(4-chloro-3,5-dimethylphenoxy)propyl)-N-(3-methyl-5-(trifluoromethoxy)benzyl)-7-(1,3,5-trimethyl-1H-pyrazol-4-yl)-1H-indole-2-carboxamide] | 1000 to 9990 nM |
| Cc1cc(OCCCc2c(C(=O)NCc3cccc(OC(F)(F)F)c3)[nH]c3c(-c4c(C)nn(C)c4C)cccc23)cc(C)c1Cl [I-264, 3-(3-(4-chloro-3,5-dimethylphenoxy)propyl)-N-(3-(trifluoromethoxy)benzyl)-7-(1,3,5-trimethyl-1H-pyrazol-4-yl)-1H-indole-2-carboxamide] | 1000 to 9990 nM |
